Measured values from patent publication US20260199281A1, “NEW USE OF SIVELESTAT” (SHANGHAI HUILUN PHARMACEUTICAL CO., LTD., priority 2022, published 2026).

Key:
[1] = test system: carrageenan-induced pain models; test: Determination of paw swelling volumes, carrageenan-induced pain models; type: in vivo, SD male rats; conditions: for Relative value of paw volumes: single dose, mean ± SD
Description: The experimental results were expressed as “mean±standard deviation”. The data of each group were statistically analyzed using the SPSS16.0 software package to compare whether there were statistical differences among the groups. P<0.05 indicated a statistical difference. A total of 72 SD male rats aged 6 to 8 weeks, with body weights of 188-208 g, were divided into 9 groups, with 8 rats in each group. […] Then 20 mL of normal saline was added to the glass bottle. The glass bottle was placed on a magnetic stirrer, and magnetic stirring was performed for 6 hours to obtain a 3% carrageenan solution. The carrageenan solution was stored at 4° C. • 1 Fasting: no • 2 Administration route: IP (intraperitoneal injection) • 3 Administration volume: 5 mL/kg • 4 Administration frequency: single-dose administration • 5 Time of administration: administered immediately after induction Sivelestat sodium: 26 mg of sivelestat sodium (corresponding to a dosage of 10 mg/kg) was weighed. Part of normal saline was added, and sonication and vortexing were performed. The pH was adjusted with […] until a homogeneous solution was obtained, and finally, the volume was made up to 13.0 mL. Experimental samples with other dosages (30 mg/kg, 100 mg/kg) could be prepared according to the specific dosages with reference to a similar method. Parecoxib: 24 mg of parecoxib (corresponding to a dosage of 10 mg/kg) was weighed. Part of normal saline was added, and sonication and vortexing were performed. The pH was adjusted with 10 mol NaOH until a homogeneous solution was obtained, and finally, the volume was made up to 12.0 mL. Experimental samples with other dosages (20 mg/kg) could be prepared according to the specific dosages with reference to a similar method. Samples of other COX-2 inhibitors were prepared with reference to the similar method described above. [table] To measure the paw swelling volumes (paw volumes) of experimental rats, the animals were gently held with one hand, and their hind paws were placed into the instrument used to measure the paw volumes with the other hand. The size of the paw volume was recorded. The measurement was repeated twice, and the mean value was taken as the paw volume of the animals.

[2] = test system: carrageenan-induced pain models; test: Determination of mechanical pain thresholds (electronic Von Frey Hairs), carrageenan-induced pain models; type: in vivo, SD male rats; conditions: for Relative value of Von Frey Hairs: single dose, mean ± SD
Description: The experimental results were expressed as “mean±standard deviation”. The data of each group were statistically analyzed using the SPSS16.0 software package to compare whether there were statistical differences among the groups. P<0.05 indicated a statistical difference. A total of 72 SD male rats aged 6 to 8 weeks, with body weights of 188-208 g, were divided into 9 groups, with 8 rats in each group. […] Then 20 mL of normal saline was added to the glass bottle. The glass bottle was placed on a magnetic stirrer, and magnetic stirring was performed for 6 hours to obtain a 3% carrageenan solution. The carrageenan solution was stored at 4° C. • 1 Fasting: no • 2 Administration route: IP (intraperitoneal injection) • 3 Administration volume: 5 mL/kg • 4 Administration frequency: single-dose administration • 5 Time of administration: administered immediately after induction Sivelestat sodium: 26 mg of sivelestat sodium (corresponding to a dosage of 10 mg/kg) was weighed. Part of normal saline was added, and sonication and vortexing were performed. The pH was adjusted with […] until a homogeneous solution was obtained, and finally, the volume was made up to 13.0 mL. Experimental samples with other dosages (30 mg/kg, 100 mg/kg) could be prepared according to the specific dosages with reference to a similar method. Parecoxib: 24 mg of parecoxib (corresponding to a dosage of 10 mg/kg) was weighed. Part of normal saline was added, and sonication and vortexing were performed. The pH was adjusted with 10 mol NaOH until a homogeneous solution was obtained, and finally, the volume was made up to 12.0 mL. Experimental samples with other dosages (20 mg/kg) could be prepared according to the specific dosages with reference to a similar method. Samples of other COX-2 inhibitors were prepared with reference to the similar method described above. [table] The animals were placed in a specially designed multi-unit metal mesh cage for pain detection, and allowed to acclimate to the environment for 10 minutes. After the grooming and exploratory activities of the animals ceased and the animals adapted to the detection environment, the sole of the hind limb on the side where carrageenan was injected in the rats was stimulated with electronic Von Frey Hairs. […] The value of the Von Frey Hairs at this time, which was the threshold of the mechanical pain response, was recorded with “gram” as the unit of detection. The detection was repeated twice. Then the mean value was taken as the final detection index. The determination of mechanical pain thresholds was performed at a total of 5 time points, including before administration and 1 h, 3 h, 4 h and 6 h after administration.

[3] = test system: carrageenan-induced pain models; test: Determination of thermal radiation (thermal pain threshold), carrageenan-induced pain models; type: in vivo, SD male rats; conditions: for Relative value of thermal radiation: single dose, mean ± SD
Description: The experimental results were expressed as “mean±standard deviation”. The data of each group were statistically analyzed using the SPSS16.0 software package to compare whether there were statistical differences among the groups. P<0.05 indicated a statistical difference. A total of 72 SD male rats aged 6 to 8 weeks, with body weights of 188-208 g, were divided into 9 groups, with 8 rats in each group. […] Then 20 mL of normal saline was added to the glass bottle. The glass bottle was placed on a magnetic stirrer, and magnetic stirring was performed for 6 hours to obtain a 3% carrageenan solution. The carrageenan solution was stored at 4° C. • 1 Fasting: no • 2 Administration route: IP (intraperitoneal injection) • 3 Administration volume: 5 mL/kg • 4 Administration frequency: single-dose administration • 5 Time of administration: administered immediately after induction Sivelestat sodium: 26 mg of sivelestat sodium (corresponding to a dosage of 10 mg/kg) was weighed. Part of normal saline was added, and sonication and vortexing were performed. The pH was adjusted with […] until a homogeneous solution was obtained, and finally, the volume was made up to 13.0 mL. Experimental samples with other dosages (30 mg/kg, 100 mg/kg) could be prepared according to the specific dosages with reference to a similar method. Parecoxib: 24 mg of parecoxib (corresponding to a dosage of 10 mg/kg) was weighed. Part of normal saline was added, and sonication and vortexing were performed. The pH was adjusted with 10 mol NaOH until a homogeneous solution was obtained, and finally, the volume was made up to 12.0 mL. Experimental samples with other dosages (20 mg/kg) could be prepared according to the specific dosages with reference to a similar method. Samples of other COX-2 inhibitors were prepared with reference to the similar method described above. [table] The animals were placed in a transparent plastic box, and could be allowed to acclimatize for 10 minutes before the test. The middle of the plantar surface of the hind limb on the side where carrageenan was injected in the rats was irradiated with a radiant heat light source to determine their thermal pain threshold. The detection was repeated twice. Then the mean value was taken as the final detection index.

[4] = test system: rat models of post-operative pain; test: Mechanical hyperalgesia test in rat models of post-operative pain; type: in vivo, Male SD rats; conditions: used alone, i.p., single dose
Description: Male SD rats were acclimated to the test environment for 3 days before modeling. On the day of modeling, the animals were anesthetized with Zoletil 50+xylazine hydrochloride (20 mg/kg+8 mg/kg, intraperitoneal injection). A longitudinal incision of approximately 1 cm in length was made towards the toes at a position 0.7-0.8 cm from the heel of the left hind paw of the animals. After the skin was incised, the flexor digitorum brevis muscle was lifted, and a longitudinal blunt injury was inflicted. On the first day after the operation, the model animals were randomly divided into 7 groups according to the baseline values of mechanical hyperalgesia.
Two-way analysis of variance with the Bonferroni's multiple comparison test was performed.

[5] = 10 mg/kg intraperitoneal, 1 hour after administration
[6] = 10 mg/kg intraperitoneal, 3 hours after administration
[7] = 10 mg/kg intraperitoneal, 4 hours after administration
[8] = 10 mg/kg intraperitoneal, 6 hours after administration
[9] = 20 mg/kg intraperitoneal, 1 hour after administration
[10] = 20 mg/kg intraperitoneal, 3 hours after administration
[11] = 20 mg/kg intraperitoneal, 4 hours after administration
[12] = 20 mg/kg intraperitoneal, 6 hours after administration
[13] = 30 mg/kg intraperitoneal, 1 hour after administration
[14] = 30 mg/kg intraperitoneal, 3 hours after administration
[15] = 30 mg/kg intraperitoneal, 4 hours after administration
[16] = 30 mg/kg intraperitoneal, 6 hours after administration
[17] = 100 mg/kg intraperitoneal, 1 hour after administration
[18] = 100 mg/kg intraperitoneal, 3 hours after administration
[19] = 100 mg/kg intraperitoneal, 4 hours after administration
[20] = 100 mg/kg intraperitoneal, 6 hours after administration
[21] = used alone at 10, 30 and 100 mg/kg

## CCC(=O)NS(=O)(=O)c1ccc(-c2c(-c3ccccc3)noc2C)cc1 [parecoxib]
[1]; [5]
  Relative value of paw volumes: 4.34 ± 25.02%
[1]; [6]
  Relative value of paw volumes: 24.76 ± 11.32 %
[1]; [7]
  Relative value of paw volumes: 22.58 ± 18.82 %
[1]; [8]
  Relative value of paw volumes: 20.81 ± 12.66 %
[1]; [9]
  Relative value of paw volumes: 18.58 ± 45.76%
[1]; [10]
  Relative value of paw volumes: 31.45 ± 25.56 %
[1]; [11]
  Relative value of paw volumes: 19.47 ± 23.41%
[1]; [12]
  Relative value of paw volumes: 23.95 ± 15.74 %
[2]; [5]
  Relative value of Von Frey Hairs: 13.6 ± 5.9 %
[2]; [6]
  Relative value of Von Frey Hairs: 16.4 ± 4.2 %
[2]; [7]
  Relative value of Von Frey Hairs: 15.1 ± 4.5 %
[2]; [8]
  Relative value of Von Frey Hairs: 11.9 ± 5.8 %
[2]; [9]
  Relative value of Von Frey Hairs: 13.7 ± 7.5 %
[2]; [10]
  Relative value of Von Frey Hairs: 17.3 ± 7.9 %
[2]; [11]
  Relative value of Von Frey Hairs: 16.2 ± 4.2 %
[2]; [12]
  Relative value of Von Frey Hairs: 12.4 ± 3.9 %
[3]; [5]
  Relative value of thermal radiation: 34.6 ± 18.9 %
[3]; [6]
  Relative value of thermal radiation: 16.6 ± 16.7%
[3]; [7]
  Relative value of thermal radiation: 22.7 ± 13.8 %
[3]; [8]
  Relative value of thermal radiation: 14.6 ± 11.0 %
[3]; [9]
  Relative value of thermal radiation: 45.8 ± 25.1 %
[3]; [10]
  Relative value of thermal radiation: 58.5 ± 22.3 %
[3]; [11]
  Relative value of thermal radiation: 37.4 ± 26.7%
[3]; [12]
  Relative value of thermal radiation: 38.0 ± 11.0 %

## CC(C)(C)C(=O)Oc1ccc(S(=O)(=O)Nc2ccccc2C(=O)NCC(=O)O)cc1 [sivelestat sodium]
[1]; [5]
  Relative value of paw volumes: 4.86 ± 19.10%
[1]; [6]
  Relative value of paw volumes: 8.96 ± 13.90%
[1]; [7]
  Relative value of paw volumes: 1.67 ± 15.59%
[1]; [8]
  Relative value of paw volumes: 3.70 ± 14.04%
[1]; [13]
  Relative value of paw volumes: 20.49 ± 41.12%
[1]; [14]
  Relative value of paw volumes: 17.37 ± 17.14%
[1]; [15]
  Relative value of paw volumes: 14.09 ± 18.97%
[1]; [16]
  Relative value of paw volumes: 14.94 ± 18.68%
[1]; 100 mg/kg alone, 6 h after administration
  anti-inflammatory effect (paw volumes): significant anti-inflammatory effect
[1]; [17]
  Relative value of paw volumes: 3.99 ± 24.23%
[1]; [18]
  Relative value of paw volumes: 18.24 ± 11.26%
[1]; [19]
  Relative value of paw volumes: 13.64 ± 15.23%
[1]; [20]
  Relative value of paw volumes: 19.27 ± 11.40 %
[1]; [21]
  anti-inflammatory effect (paw volumes) compared with the model group: a certain anti-inflammatory effect
[4]
  effect on post-operative pain (mechanical hyperalgesia): significant effect
[2]; [5]
  Relative value of Von Frey Hairs: 17.1 ± 5.5 %
[2]; [6]
  Relative value of Von Frey Hairs: 15.3 ± 5.9 %
[2]; [7]
  Relative value of Von Frey Hairs: 11.5 ± 6.1 %
[2]; [8]
  Relative value of Von Frey Hairs: 4.8 ± 4.4 %
[2]; [13]
  Relative value of Von Frey Hairs: 18.9 ± 5.9 %
[2]; [14]
  Relative value of Von Frey Hairs: 15.6 ± 7.5 %
[2]; [15]
  Relative value of Von Frey Hairs: 15.2 ± 4.2 %
[2]; [16]
  Relative value of Von Frey Hairs: 4.1 ± 5.0%
[2]; [17]
  Relative value of Von Frey Hairs: 20.4 ± 3.9 %
[2]; [18]
  Relative value of Von Frey Hairs: 18.1 ± 3.7 %
[2]; [19]
  Relative value of Von Frey Hairs: 15.5 ± 4.3 %
[2]; [20]
  Relative value of Von Frey Hairs: 7.9 ± 4.5 %
[2]; [21]
  analgesic efficacy in the mechanical pain threshold test: significant analgesic efficacy
[3]; [5]
  Relative value of thermal radiation: 10.3 ± 28.7%
[3]; [6]
  Relative value of thermal radiation: 19.8 ± 14.0 %
[3]; [7]
  Relative value of thermal radiation: 3.7 ± 5.1%
[3]; [8]
  Relative value of thermal radiation: 4.2 ± 6.2%
[3]; [13]
  Relative value of thermal radiation: 20.9 ± 39.4%
[3]; [14]
  Relative value of thermal radiation: 18.0 ± 21.4%
[3]; [15]
  Relative value of thermal radiation: 4.0 ± 9.3%
[3]; [16]
  Relative value of thermal radiation: 9.2 ± 4.4%
[3]; [17]
  Relative value of thermal radiation: 24.0 ± 41.2%
[3]; [18]
  Relative value of thermal radiation: 22.3 ± 18.0 %
[3]; [19]
  Relative value of thermal radiation: 13.1 ± 11.0%
[3]; [20]
  Relative value of thermal radiation: 5.4 ± 8.1%
[3]; used alone at 10 mg/kg and 100 mg/kg, 3 hours after administration
  analgesic efficacy in the thermal pain threshold test: significant analgesic efficacy
